Calls of active or inactive are those of the source. The rule behind the calls is not given here.
Assays:
U373-MAGI [1] = test: Effect on dRGU-TP level in human U373-MAGI cells at 50 uM preincubated for 2 hrs followed by 5-aza-dC addition measured after 4 hrs by LC-MS/MS analysis; type: functional, cell-based
U373-MAGI [2] = test: Reduction in dCTP level in human U373-MAGI cells at 200 uM preincubated for 2 hrs followed by 5-aza-dC addition measured after 4 hrs by LC-MS/MS analysis relative to 5-aza-dC; type: functional, cell-based
[3] = tested on: Human immunodeficiency virus 1; test: (§1) Potentiation of 5-Aza-dC-induced antiviral activity against VSV-G pseudotyped HIV-1 NL4-3 infected in human U373-MAGI cells assessed as increase in total mutation frequency at 50 uM incubated for 4 hrs preinfection followed by 5-Aza-C addition for 2 hrs preinfection and subsequent viral infection measured at 72 hrs post infection by illumina sequencing method relative to control; type: functional, organism-based
U373-MAGI [4] = test: Reduction in dGTP level in human U373-MAGI cells at 200 uM after 6 hrs by LC-MS/MS analysis; type: functional, cell-based
U373-MAGI [5] = test: Reduction in dCTP level in human U373-MAGI cells at 50 uM after 6 hrs by LC-MS/MS analysis; type: functional, cell-based
U373-MAGI [6] = test: Reduction in dCTP level in human U373-MAGI cells at 200 uM after 6 hrs by LC-MS/MS analysis; type: functional, cell-based
U373-MAGI [7] = test: Reduction in dATP level in human U373-MAGI cells at 200 uM after 6 hrs by LC-MS/MS analysis; type: functional, cell-based
U373-MAGI [8] = test: Reduction in dCTP level in human U373-MAGI cells at 50 uM preincubated for 2 hrs followed by 5-aza-C addition measured after 4 hrs by LC-MS/MS analysis; type: functional, cell-based
U373-MAGI [9] = test: Increase in 5-aza-dCTP/dCTP ratio in human U373-MAGI cells at 50 uM preincubated for 2 hrs followed by 5-aza-dC addition measured after 4 hrs by LC-MS/MS analysis relative to 5-aza-dC; type: functional, cell-based
[10] = tested on: Human immunodeficiency virus 1; test: as §1, with “in” for “in total mutation”, “frequency of C to G transversion” for “frequency”; type: functional, organism-based
[11] = tested on: Human immunodeficiency virus 1; test: Antiviral activity against VSV-G pseudotyped HIV-1 NL4-3 infected in human U373-MAGI cells assessed as reduction in U5-gag level at 50 uM measured at 6 hrs post infection by qPCR method; type: functional, organism-based
[12] = tested on: Human immunodeficiency virus 1; test: Antiviral activity against VSV-G pseudotyped HIV-1 NL4-3 infected in human U373-MAGI cells assessed as Pol mutation at 50 uM incubated for 4 hrs prior to infection measured at 72 hrs post infection by illumina sequencing method (reference value: 18.5%); type: functional
[13] = tested on: Human immunodeficiency virus 1; test: Antiviral activity against VSV-G pseudotyped HIV-1 NL4-3 infected in human U373-MAGI cells assessed as Env mutation at 50 uM incubated for 4 hrs prior to infection measured at 72 hrs post infection by illumina sequencing method (reference value: 21.4%); type: functional
[14] = tested on: Human immunodeficiency virus 1; test: Antiviral activity against VSV-G pseudotyped HIV-1 NL4-3 infected in human U373-MAGI cells assessed as Nef mutation at 50 uM incubated for 4 hrs prior to infection measured at 72 hrs post infection by illumina sequencing method (reference value: 22.6%); type: functional
[15] = tested on: Human immunodeficiency virus 1; test: as §1, with “5-Aza-C-induced” for “5-Aza-dC-induced”, “Gag” for “increase in total”, “mutation” for “mutation frequency”, “(reference value: 18.4%)” for “relative to control”; type: functional
[16] = tested on: Human immunodeficiency virus 1; test: as §1, with “5-Aza-C-induced” for “5-Aza-dC-induced”, “Pol” for “increase in total”, “mutation” for “mutation frequency”, “(reference value: 18.5%)” for “relative to control”; type: functional
[17] = tested on: Human immunodeficiency virus 1; test: as §1, with “Gag” for “increase in total”, “mutation” for “mutation frequency”, “(reference value: 18.4%)” for “relative to control”; type: functional
[18] = tested on: Human immunodeficiency virus 1; test: as §1, with “Pol” for “increase in total”, “mutation” for “mutation frequency”, “(reference value: 18.5%)” for “relative to control”; type: functional
[19] = tested on: Human immunodeficiency virus 1; test: as §1, with “Vif” for “increase in total”, “mutation” for “mutation frequency”, “(reference value: 19.2%)” for “relative to control”; type: functional
[20] = tested on: Human immunodeficiency virus 1; test: as §1, with “Env” for “increase in total”, “mutation” for “mutation frequency”, “(reference value: 21.4%)” for “relative to control”; type: functional
[21] = tested on: Human immunodeficiency virus 1; test: as §1, with “Nef” for “increase in total”, “mutation” for “mutation frequency”, “(reference value: 22.6%)” for “relative to control”; type: functional
[22] = tested on: Human immunodeficiency virus 1; test: (§2) Potentiation of 5-Aza-C-induced antiviral activity against VSV-G pseudotyped HIV-1 NL4-3 infected in human U373-MAGI cells assessed as decrease in 5-Aza-C EC50 at 50 uM preincubated for 2 hrs followed by 5-Aza-C addition for 2 hrs and subsequent viral infection measured at 72 hrs post infection by flow cytometric analysis relative to control; type: functional
[23] = tested on: Human immunodeficiency virus 1; test: Antiviral activity against VSV-G pseudotyped HIV-1 NL4-3 infected in human U373-MAGI cells assessed as reduction in viral infectivity at 50 uM incubated for 4 hrs prior to viral infection measured at 72 hrs post infection by flow cytometric analysis; type: functional, organism-based
[24] = tested on: Human immunodeficiency virus 1; test: Antiviral activity against VSV-G pseudotyped HIV-1 NL4-3 infected in human U373-MAGI cells assessed as reduction in viral infectivity preincubated for 2 to 8 hrs followed by viral infection measured at 72 hrs post infection by flow cytometric analysis; type: functional, organism-based
[25] = tested on: Human immunodeficiency virus 1; test: as §2, with “reduction” for “decrease”, “viral infectivity” for “5-Aza-C EC50”, “25 to 100” for “50”, “analysis” for “analysis relative to control”; type: functional, organism-based
[26] = tested on: Human immunodeficiency virus 1; test: Potentiation of 5-Aza-C-induced antiviral activity against VSV-G pseudotyped HIV-1 NL4-3 infected in human U373-MAGI cells assessed as reduction in U5-gag level at 50 uM after 2 to 72 hrs by qPCR method; type: functional, organism-based
[27] = tested on: Human immunodeficiency virus 1; test: Antiviral activity against VSV-G pseudotyped HIV-1 NL4-3 infected in human U373-MAGI cells assessed as reduction in gag level at 50 uM measured at 12 to 72 hrs post infection by qPCR method; type: functional, organism-based
U373-MAGI [28] = test: Increase in 5-aza-dCTP/dCTP ratio in human U373-MAGI cells at 50 uM preincubated for 2 hrs followed by 5-aza-C addition measured after 4 hrs by LC-MS/MS analysis relative to 5-aza-C; type: functional, cell-based
U373-MAGI [29] = test: Reduction in dTTP level in human U373-MAGI cells at 50 uM after 6 hrs by LC-MS/MS analysis; type: functional, cell-based
U373-MAGI [30] = test: Reduction in dGTP level in human U373-MAGI cells at 50 uM after 6 hrs by LC-MS/MS analysis; type: functional, cell-based
U373-MAGI [31] = test: Reduction in 5-aza-dCTP level in human U373-MAGI cells at 50 uM preincubated for 2 hrs followed by 5-aza-C addition measured after 4 hrs by LC-MS/MS analysis; type: functional, cell-based

SMILES: Oc1ccc(/C=C/c2cc(O)cc(O)c2)cc1 [RESVERATROL]
- Activity (U373-MAGI [1]): inactive
- Activity (U373-MAGI [2]): Active
- Activity [3]: inactive
- Activity (U373-MAGI [4]): Active
- Activity (U373-MAGI [5]): inactive
- Activity (U373-MAGI [6]): Active
- Activity (U373-MAGI [7]): Active
- Activity (U373-MAGI [8]): Active
- Activity (U373-MAGI [9]): Active
- Activity [10]: inactive
- Activity [11]: Active
- Activity [12]: 19%
- Activity [13]: 22.5%
- Activity [14]: 18.5%
- Activity [15]: 15.5%
- Activity [16]: 21.9%
- Activity [17]: 15.7%
- Activity [18]: 18.9%
- Activity [19]: 25.1%
- Activity [20]: 20.1%
- Activity [21]: 20.3%
- fold change (FC) [22]: 2.5
- Activity [23]: Active
- Activity [24]: Active
- Activity [25]: Active
- Activity [26]: Active
- Activity [27]: inactive
- Activity (U373-MAGI [28]): Active
- Activity (U373-MAGI [29]): inactive
- Activity (U373-MAGI [30]): inactive
- Activity (U373-MAGI [31]): inactive
